Laboratory results taken from patent US11053235B2, “Substituted 1,4-dihydropyrimidines for the treatment of HBV infection or HBV-induced diseases” (Janssen Sciences Ireland Unlimited Company, priority 2018, dated 2021).

Legend:
[1] = tested on: HBV; assay: Anti-viral assay in HepG2.2.15 cells: HBV inhibitory activity (HBV DNA in culture medium by q-PCR); format: cell-based; conditions: Hepatitis B virus, HepG2.2.15, 144 h, HepG2.2.15 cells, 6 days treatment, HBV DNA in culture medium by q-PCR, highest concentration 10 uM; read-out: EC50
Source text: (§1) Example 2: Anti-Viral Assay in HepG2.2.15 Cells
(§2) 1.1. Cell Line • HepG2.2.15 (the HepG2.2.15 cell line can be produced by transfection of the HepG2 cell line as described in Sells, Chen, and Acs 1987 (Proc. Natl. Acad. Sci. USA 84:1005-1009), and the HepG2 cell line is available from ATCC® under number HB-8065™). Reagents • DMEM/F12 (INVITROGEN-11330032) • FBS (GIBCO-10099-141) • Dimethyl sulfoxide(DMSO) (SIGMA-D2650) • Penicillin-streptomycin solution (HYCLONE-SV30010) • NEAA (INVITROGEN-1114050) • L-Glutamine (INVITROGEN-25030081) • Geneticin Selective Antibiotic (G418, 500 mg/ml) (INVITROGEN-10131027) • Trypsinase digestion solution (INVITROGEN-25300062) • CCK8 (BIOLOTE-35004) • QIAamp 96 DNA Blood Kit (12) (QIAGEN-51162) • FastStart Universal Probe Mast Mix (ROCHE-04914058001)
(§3) 2.1. HBV Inhibitory Activity and Cytotoxicity Determination
(§4) Seed the cell HepG2.2.15 cells into 96-well plate in 2% FBS culture medium at the density of 40,000 cells/well and 5,000 cells/well for HBV inhibitory activity and cytotoxicity determination, respectively. After seeding, incubate the cell plates at 37° C., 5% CO2 overnight. The next day, medium containing compounds is added to the cell to treat the cells for 6 days with medium refreshed once in the middle of the treatment. 8 dose points with 3 folds dilution of each compound were adopted and the highest concentration of the compounds is 10 uM and 100 uM for HBV inhibitory activity and cytotoxicity determination, respectively.
The HBV DAN change in the cell culture medium induced by the compounds is measured by q-PCR method. Briefly, the HBV DNA in the culture medium is extracted using QIAamp 96 DNA Blood Kit according to the manual and then quantified by q-PCR using the primers and probe in the table below.
(§5) EC50 and CC50 values are calculated by the GRAPHPAD PRISM software.

[2] = Cytotoxicity determination in HepG2.2.15 cells (CCK-8); format: cell-based; conditions: human, 6 days treatment, CCK-8, highest concentration 100 uM
Source text: as §1, §2, §3, §4
After 6 days of compounds treatment, add 20 μl CCK-8 reagents to each well of cytotoxicity assay plates, incubate the plate at 37° C., 5% CO2 for 2.5 h and measure the absorbance at 450 nm wavelength, at the same time read the absorbance at 630 nm wavelength as reference.
as §5

| Compound | EC50 [1] [nM] | CC50 at 6 days [2] [µM] |
| --- | --- | --- |
| CCOC(=O)C1=C([C@H]2CC[C@H](c3ncc(C(=O)O)o3)CC2)NC(c2nccs2)=NC1c1ccc(F)c(F)c1Cl (single isomer, unassigned) [Compound I-26-B, (trans)-2-(4-(6-(2-chloro-3,4-difluorophenyl)-5-(ethoxycarbonyl)-2-(thiazol-2-yl)-3,6-dihydropyrimidin-4-yl)cyclohexyl)oxazole-5-carboxylic Acid] | 55 | 15.5 |
| CCOC(=O)C1=C([C@H]2CC[C@H](c3nc(C(C)(C)C(=O)O)co3)CC2)NC(c2nccs2)=NC1c1ccc(F)c(F)c1Cl (single isomer, unassigned) [Compound I-27-B, (trans)-2-(2-(4-(6-(2-chloro-3,4-difluorophenyl)-5-(ethoxycarbonyl)-2-(thiazol-2-yl)-3,6-dihydropyrimidin-4-yl)cyclohexyl)oxazol-4-yl)-2-methylpropanoic Acid] | 18 | 5.17 |
| CCOC(=O)C1=C([C@H]2CC[C@H](c3cnn(CC(=O)O)c3)CC2)NC(c2nccs2)=NC1c1ccc(F)c(F)c1Cl (single isomer, unassigned) [Compound I-28-B, (trans)-2-(4-(4-(6-(2-chloro-3,4-difluorophenyl)-5-(ethoxycarbonyl)-2-(thiazol-2-yl)-3,6-dihydropyrimidin-4-yl)cyclohexyl)-1H-pyrazol-1-yl)acetic Acid] | 33 | 5.28 |
| COC(=O)C1=C([C@H]2CC[C@H](c3cnn(CCC(=O)O)c3)CC2)NC(c2nccs2)=NC1c1ccc(F)cc1Cl (single isomer, unassigned) [Compound I-29-C, (trans)-3-(4-(4-(6-(2-Chloro-4-fluorophenyl)-5-(methoxycarbonyl)-2-(thiazol-2-yl)-3,6-dihydropyrimidin-4-yl)cyclohexyl)-1H-pyrazol-1-yl)propanoic Acid] | 10 | 11.2 |
| CCOC(=O)C1=C([C@H]2CC[C@H](c3cnn(C(C)(C)CC(=O)O)c3)CC2)NC(c2nccs2)=NC1c1ccc(F)c(F)c1Cl (single isomer, unassigned) [Compound I-30-D] | 26 | 1.16 |
| CCOC(=O)C1=C([C@H]2CC[C@H](c3cnn(CCC(=O)O)c3)CC2)NC(c2nccs2)=NC1c1ccc(F)c(F)c1Cl (single isomer, unassigned) [Compound I-32-B, 3-(4-((trans)-4-(6-(2-Chloro-3,4-difluorophenyl)-5-(ethoxycarbonyl)-2-(thiazol-2-yl)-3,6-dihydropyrimidin-4-yl)cyclohexyl)-1H-pyrazol-1-yl)propanoic Acid] | < 4.6 | 5.81 |
| CCOC(=O)C1=C([C@H]2CC[C@H](c3cn(CCC(=O)O)nc3C)CC2)NC(c2nccs2)=NC1c1ccc(F)c(F)c1Cl (single isomer, unassigned) [Compound I-33-C, (trans)-3-(4-(4-(6-(2-Chloro-3,4-difluorophenyl)-5-(ethoxycarbonyl)-2-(thiazol-2-yl)-3,6-dihydropyrimidin-4-yl)cyclohexyl)-3-methyl-1H-pyrazol-1-yl)propanoic Acid] | 7.2 | 2.97 |
| CCOC(=O)C1=C([C@H]2CC[C@H](c3cc(C(=O)O)nn3C)CC2)NC(c2nccs2)=NC1c1ccc(F)c(F)c1Cl (single isomer, unassigned) [Compound I-35-C, (trans)-5-(4-(6-(2-chloro-3,4-difluorophenyl)-5-(ethoxycarbonyl)-2-(thiazol-2-yl)-3,6-dihydropyrimidin-4-yl)cyclohexyl)-1-methyl-1H-pyrazole-3-carboxylic Acid] | 63 | 7.16 |
| CCOC(=O)C1=C([C@H]2CC[C@H](c3cc(C(=O)O)n(C)n3)CC2)NC(c2nccs2)=NC1c1ccc(F)c(F)c1Cl (single isomer, unassigned) [Compound I-36-B, (trans)-3-(4-(6-(2-Chloro-3,4-difluorophenyl)-5-(ethoxycarbonyl)-2-(thiazol-2-yl)-3,6-dihydropyrimidin-4-yl)cyclohexyl)-1-methyl-1H-pyrazole-5-carboxylic Acid] | 6.2 | 5.94 |
| CCOC(=O)C1=C([C@H]2CC[C@H](c3cnn(CC(C)(C)C(=O)O)c3)CC2)NC(c2nccs2)=NC1c1ccc(F)c(F)c1Cl (single isomer, unassigned) [Compound I-37-C, (trans)-3-(4-(4-(6-(2-Chloro-3,4-difluorophenyl)-5-(ethoxycarbonyl)-2-(thiazol-2-yl)-3,6-dihydropyrimidin-4-yl)cyclohexyl)-1H-pyrazol-1-yl)-2,2-dimethylpropanoic Acid] | 8.3 | 2.22 |
| CCOC(=O)C1=C([C@H]2CC[C@H](n3cc(C(=O)O)cn3)CC2)NC(c2nccs2)=NC1c1ccc(F)c(F)c1Cl (single isomer, unassigned) [Compound I-38-B, (trans)-1-(4-(6-(2-Chloro-3,4-difluorophenyl)-5-(ethoxycarbonyl)-2-(thiazol-2-yl)-3,6-dihydropyrimidin-4-yl)cyclohexyl)-1H-pyrazole-4-carboxylic Acid] | < 4.6 | 11.3 |
| CCOC(=O)C1=C([C@H]2CC[C@@H](n3nccc3C(=O)O)CC2)NC(c2nccs2)=NC1c1ccc(F)c(F)c1Cl (single isomer, unassigned) [Compound I-39-B, (cis)-1-(4-(6-(2-Chloro-3,4-difluorophenyl)-5-(ethoxycarbonyl)-2-(thiazol-2-yl)-3,6-dihydropyrimidin-4-yl)cyclohexyl)-1H-pyrazole-5-carboxylic Acid] | 82 | 7.59 |
| CCOC(=O)C1=C([C@H]2CC[C@H](n3nccc3C(=O)O)CC2)NC(c2nccs2)=NC1c1ccc(F)c(F)c1Cl (single isomer, unassigned) [Compound I-39-C, (trans)-1-(4-(6-(2-Chloro-3,4-difluorophenyl)-5-(ethoxycarbonyl)-2-(thiazol-2-yl)-3,6-dihydropyrimidin-4-yl)cyclohexyl)-1H-pyrazole-5-carboxylic Acid] | 110 | 7.75 |
| CCOC(=O)C1=C([C@H]2CC[C@H](c3ncc(C(=O)O)cn3)CC2)NC(c2nccs2)=NC1c1ccc(F)c(F)c1Cl (single isomer, unassigned) [Compound I-40-A, (trans)-2-(4-(6-(2-Chloro-3,4-difluorophenyl)-5-(ethoxycarbonyl)-2-(thiazol-2-yl)-3,6-dihydropyrimidin-4-yl)cyclohexyl)pyrimidine-5-carboxylic Acid] | < 4.6 | 4.43 |
| CCOC(=O)C1=C([C@H]2CC[C@H](c3nc(C(=O)O)cs3)CC2)NC(c2nccs2)=NC1c1ccc(F)c(F)c1Cl (single isomer, unassigned) [Compound I-41-B, (trans)-2-(4-(6-(2-Chloro-3,4-difluorophenyl)-5-(ethoxycarbonyl)-2-(thiazol-2-yl)-3,6-dihydropyrimidin-4-yl)cyclohexyl)thiazole-4-carboxylic Acid] | 17 | 1.02 |
| CCOC(=O)C1=C([C@H]2CC[C@H](c3cc(C(=O)O)no3)CC2)NC(c2nccs2)=NC1c1ccc(F)c(F)c1Cl (single isomer, unassigned) [Compound I-42-B, (trans)-5-(4-(6-(2-Chloro-3,4-difluorophenyl)-5-(ethoxycarbonyl)-2-(thiazol-2-yl)-3,6-dihydropyrimidin-4-yl)cyclohexyl)isoxazole-3-carboxylic Acid] | 83 | 10.8 |
| CCOC(=O)C1=C([C@H]2CC[C@H](c3cc(C(=O)O)on3)CC2)NC(c2nccs2)=NC1c1ccc(F)c(F)c1Cl (single isomer, unassigned) [Compound I-43-B] | 29 | 13.7 |
| CCOC(=O)C1=C([C@H]2CC[C@H](c3ccc(C(=O)O)cc3)CC2)NC(c2nccs2)=NC1c1ccc(F)c(F)c1Cl (single isomer, unassigned) [Compound I-44-A, (trans)-4-(4-(6-(2-Chloro-3,4-difluorophenyl)-5-(ethoxycarbonyl)-2-(thiazol-2-yl)-3,6-dihydropyrimidin-4-yl)cyclohexyl)benzoic Acid] | 8.5 | 1.81 |
